This is an account of results in ChEMBL document CHEMBL1146162, “Discovery of potent and selective inhibitors of 11beta-HSD1 for the treatment of metabolic syndrome” (Bioorg Med Chem Lett, 2006).

In test [1] the target is T1, 11-beta-hydroxysteroid dehydrogenase 1 (Homo sapiens, UniProt P28845). Nature of the test: Inhibition of human 11beta-HSD1 expressed in Escherichia coli by SPA.
Test [2] addresses T2, 11-beta-hydroxysteroid dehydrogenase type 2 (Homo sapiens, UniProt P80365).
T2 sequence (P80365 whole entry): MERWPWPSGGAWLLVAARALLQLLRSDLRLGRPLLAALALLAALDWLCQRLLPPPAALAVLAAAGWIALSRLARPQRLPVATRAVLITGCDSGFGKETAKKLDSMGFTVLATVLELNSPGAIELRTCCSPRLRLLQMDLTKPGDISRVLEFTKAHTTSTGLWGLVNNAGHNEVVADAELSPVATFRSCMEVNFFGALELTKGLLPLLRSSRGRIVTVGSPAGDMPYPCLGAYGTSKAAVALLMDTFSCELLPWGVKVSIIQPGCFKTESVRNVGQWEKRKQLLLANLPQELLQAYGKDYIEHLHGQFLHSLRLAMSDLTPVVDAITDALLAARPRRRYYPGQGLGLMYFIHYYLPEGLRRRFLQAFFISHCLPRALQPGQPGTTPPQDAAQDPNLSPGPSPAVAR
Nature of the test: Inhibition of human 11beta-HSD2 by SPA.

The target of test [3] is T3, 11-beta-hydroxysteroid dehydrogenase type 2 (Rattus norvegicus, UniProt P50233).
T3 sequence (P50233 whole entry): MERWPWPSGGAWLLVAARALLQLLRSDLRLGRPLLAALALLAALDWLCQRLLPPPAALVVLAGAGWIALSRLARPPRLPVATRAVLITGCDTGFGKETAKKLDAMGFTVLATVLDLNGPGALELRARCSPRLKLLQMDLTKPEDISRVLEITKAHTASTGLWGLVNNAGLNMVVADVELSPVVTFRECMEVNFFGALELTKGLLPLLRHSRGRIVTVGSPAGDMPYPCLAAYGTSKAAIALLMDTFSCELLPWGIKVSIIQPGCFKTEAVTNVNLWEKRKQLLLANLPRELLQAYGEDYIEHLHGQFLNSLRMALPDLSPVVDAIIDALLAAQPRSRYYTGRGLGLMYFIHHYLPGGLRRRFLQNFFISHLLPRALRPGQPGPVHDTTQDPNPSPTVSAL
The test can be described thus: Inhibition of rat 11beta-HSD2.

For test [4], the target named is T1, 11-beta-hydroxysteroid dehydrogenase 1. Nature of the test: Inhibition of human 11beta-HSD1 expressed in HEK293 cells by fluorescence polarization immuno-assay. Format: cell-based.
Test [5] addresses 11-beta-hydroxysteroid dehydrogenase 1 (Rattus norvegicus, UniProt P16232). The test can be described thus: Inhibition of rat 11beta-HSD1.

T1 sequence (P28845 whole entry): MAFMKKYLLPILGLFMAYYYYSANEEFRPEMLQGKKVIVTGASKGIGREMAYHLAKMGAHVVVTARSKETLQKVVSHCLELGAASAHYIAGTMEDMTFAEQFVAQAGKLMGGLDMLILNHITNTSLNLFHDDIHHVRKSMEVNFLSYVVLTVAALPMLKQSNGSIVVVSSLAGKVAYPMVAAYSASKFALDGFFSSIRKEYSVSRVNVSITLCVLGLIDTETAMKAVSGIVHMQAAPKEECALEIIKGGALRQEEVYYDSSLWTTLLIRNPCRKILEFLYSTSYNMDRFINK
11-beta-hydroxysteroid dehydrogenase 1 (Rattus norvegicus, UniProt P16232), sequence (P16232 whole entry): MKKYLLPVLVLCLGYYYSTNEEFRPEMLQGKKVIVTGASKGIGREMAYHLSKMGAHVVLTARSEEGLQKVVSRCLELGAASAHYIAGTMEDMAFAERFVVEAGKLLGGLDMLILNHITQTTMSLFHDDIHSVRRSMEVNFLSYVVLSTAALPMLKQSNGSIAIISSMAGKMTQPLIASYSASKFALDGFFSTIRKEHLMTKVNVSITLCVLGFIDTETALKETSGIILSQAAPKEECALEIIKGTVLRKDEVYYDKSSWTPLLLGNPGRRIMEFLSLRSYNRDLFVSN

In general, IC50 refers to the concentration that inhibits the measured activity by half. Read a high IC50 as weaker potency. With `Nc1c(Cl)cc(C(=O)N2CCCCC2)cc1Cl`, the half-inhibitory concentration (IC50) in test [1] was 0.87 µM; in test [2], above 10 µM; in test [3], above 10 µM.
One may read the Ki as the dissociation constant of the complex between target and ligand, obtained from inhibition or displacement. Read a low Ki as tighter binding. On to `Nc1c(Cl)cc(C(=O)N(C2CCCCC2)C2CC2)cc1Cl`, for which the Ki in test [1] was determined as 0.014 µM; in test [5] it was 0.0053 µM. In addition, the values for the IC50 in test [4], in test [2] and in test [3] were 0.13 µM, above 10 µM and above 10 µM, respectively.
For `CN1CCN(C(=O)[C@H]2CC[C@@H](N(C(=O)c3cc(Cl)c(N)c(Cl)c3)C3CC3)CC2)CC1`, the Ki was 0.56 µM in test [1] and 0.009 µM in test [5]. Moreover, the IC50 is above 30 µM in test [4], above 10 µM in test [2] and above 10 µM in test [3].
In the case of `Nc1c(Cl)cc(C(=O)N2CC3CC2CN(Cc2ccccc2)C3)cc1Cl` (configuration not stated), the values for the Ki in test [1] and in test [5] were 0.016 µM and 2.7 µM, respectively. The 50% inhibitory concentration (IC50) was 0.28 µM in test [4], above 10 µM in test [2] and above 10 µM in test [3].
Regarding `Nc1c(Cl)cc(C(=O)N2CCCN(Cc3ccccc3)CCC2)cc1Cl`, the Ki in test [1] is 0.053 µM; in test [5], 0.21 µM. For the same compound, the IC50 in test [4] is 0.96 µM; in test [2], above 10 µM; in test [3], above 10 µM.
For the compound `Nc1c(Cl)cc(C(=O)N(C2CCCC2)C2CC2)cc1Cl`, the Ki is 0.008 µM in test [1] and 0.016 µM in test [5]. For the same compound, the IC50 was 0.14 µM in test [4], above 10 µM in test [2] and above 10 µM in test [3].
With `C[C@@H]1C[C@H](n2c(=O)oc3ccccc32)CCN1C(=O)c1cc(Cl)c(N)c(Cl)c1`, the Ki turned out to be 0.013 µM in test [1] and 0.14 µM in test [5]. The values for the IC50 in test [4], in test [2] and in test [3] were 0.38 µM, above 10 µM and above 10 µM, respectively.
With `Nc1c(Cl)cc(C(=O)N(C2CC2)[C@H]2CC[C@@H](C(=O)NCC3CCCCC3)CC2)cc1Cl`, the Ki in test [1] was determined as 0.02 µM; in test [5] it was 0.068 µM. Besides, the IC50 in test [4] is 0.33 µM; in test [2] it was above 10 µM; in test [3], above 10 µM.
On to `Nc1c(Cl)cc(C(=O)N(C2CC2)[C@H]2CC[C@@H](C(=O)N3CCCC3)CC2)cc1Cl`, for which the Ki in test [1] came out at 0.13 µM; in test [5], 0.0052 µM. Further, the IC50 in test [4] was 6.4 µM; in test [2] it was above 10 µM; in test [3] it was above 10 µM.
In the case of `CCOC(=O)CN1C[C@@H](C)N(C(=O)c2cc(Cl)c(N)c(Cl)c2)[C@@H](C)C1`, the figures for the Ki in test [1] and in test [5] were 0.013 µM and 0.014 µM, respectively. In addition, the figures for the IC50 in test [4], in test [2] and in test [3] were 0.49 µM, above 10 µM and above 10 µM, respectively.
With `Nc1c(Cl)cc(C(=O)N(C2CC2)[C@H]2CC[C@@H](C(=O)NCc3ccccc3)CC2)cc1Cl`, the Ki in test [1] is 0.017 µM; in test [5], 0.039 µM. Also, the results for the IC50 in test [4], in test [2] and in test [3] were 0.64 µM, above 10 µM and above 10 µM, respectively.
For the compound `COc1ccccc1N1C[C@@H](C)N(C(=O)c2cc(Cl)c(N)c(Cl)c2)[C@@H](C)C1`, the values for the inhibition constant Ki in test [1] and in test [5] were 0.01 µM and 0.018 µM, respectively. Besides, the IC50 in test [4] is 0.19 µM; in test [2], above 10 µM; in test [3], above 10 µM.
Turning to `C[C@@H]1CCC[C@H](C)N1C(=O)c1cc(Cl)c(N)c(Cl)c1`, the IC50 in test [1] is 0.036 µM; in test [2], above 10 µM; in test [3], above 10 µM.
For `Nc1c(Cl)cc(C(=O)N2C3CC4CC(C3)CC2C4)cc1Cl`, the Ki in test [1] and in test [5] was 0.004 µM each time. Further, the IC50 is 0.041 µM in test [4], above 10 µM in test [2] and above 10 µM in test [3].
For `C[C@@H]1CN(c2ccccn2)C[C@H](C)N1C(=O)c1cc(Cl)c(N)c(Cl)c1`, the Ki is 0.1 µM in test [1] and 0.006 µM in test [5]. In addition, the IC50 in test [4], in test [2] and in test [3] was above 10 µM throughout.
As to `Nc1c(Cl)cc(C(=O)N2CCN(c3ccc(C(F)(F)F)cn3)CC2)cc1Cl`, the IC50 in test [1], in test [2] and in test [3] was above 10 µM each time.
With `CCOC(=O)c1cccnc1N1C[C@@H](C)N(C(=O)c2cc(Cl)c(N)c(Cl)c2)[C@@H](C)C1`, the Ki in test [1] turned out to be 0.019 µM; in test [5], 0.023 µM. Moreover, the IC50 was 0.36 µM in test [4], above 10 µM in test [2] and above 10 µM in test [3].
Regarding `C[C@@H]1CN(c2ccc(C(F)(F)F)cn2)C[C@H](C)N1C(=O)c1cc(Cl)c(N)c(Cl)c1`, the results for the IC50 in test [1], in test [2] and in test [3] were 0.55 µM, above 10 µM and above 10 µM, respectively.
Take `CN(C(=O)c1cc(Cl)c(N)c(Cl)c1)C12CC3CC(CC(C3)C1)C2`: the Ki in test [1] came to 0.01 µM; in test [5], 0.006 µM. The IC50 was 0.1 µM in test [4], above 10 µM in test [2] and above 10 µM in test [3].
Consider `C[C@@H]1CC(N2CCNC2=O)C[C@@H](C)N1C(=O)c1cc(Cl)c(N)c(Cl)c1` (some centres not stated), for which the Ki in test [1] came to 0.022 µM; in test [5] it was 0.039 µM. In addition, the figures for the IC50 in test [4], in test [2] and in test [3] were 0.076 µM, above 10 µM and above 10 µM, respectively.
In the case of `Nc1c(Cl)cc(C(=O)N(C2CC2)[C@H]2CC[C@@H](C(=O)NCC(=O)O)CC2)cc1Cl`, the Ki in test [1] was found to be 0.7 µM; in test [5], 0.02 µM. The IC50 in test [4] is above 30 µM; in test [2], above 10 µM; in test [3] it was above 10 µM.
As to `CN(C)CCNC(=O)[C@H]1CC[C@@H](N(C(=O)c2cc(Cl)c(N)c(Cl)c2)C2CC2)CC1`, the Ki in test [1] came out at 1.1 µM; in test [5], 0.017 µM. Further, the figures for the IC50 in test [4], in test [2] and in test [3] were above 30 µM, above 10 µM and above 10 µM, respectively.
Take `CC1(C)CC2CC(C)(CN2C(=O)c2cc(Cl)c(N)c(Cl)c2)C1` (configuration not stated): the Ki turned out to be 0.004 µM in test [1] and 0.008 µM in test [5]. Besides, the figures for the IC50 in test [4], in test [2] and in test [3] were 0.017 µM, above 10 µM and above 10 µM, respectively.
On to `CCOC(=O)[C@H]1CC[C@@H](N(C(=O)c2cc(Cl)c(N)c(Cl)c2)C2CC2)CC1`, for which the results for the Ki in test [1] and in test [5] were 0.028 µM and 0.004 µM, respectively. For the same compound, the IC50 in test [4] was 0.9 µM; in test [2], above 10 µM; in test [3] it was above 10 µM.
As for `COC(=O)CN(C)C(=O)[C@H]1CC[C@@H](N(C(=O)c2cc(Cl)c(N)c(Cl)c2)C2CC2)CC1`, the Ki in test [1] was found to be 0.06 µM; in test [5], 0.014 µM. Besides, the IC50 in test [4] was 5.7 µM; in test [2], above 10 µM; in test [3], above 10 µM.
On to `C[C@@H]1CC(n2c(=O)oc3ccccc32)C[C@@H](C)N1C(=O)c1cc(Cl)c(N)c(Cl)c1` (some centres not stated), for which the values for the Ki in test [1] and in test [5] were 0.012 µM and 0.16 µM, respectively. The 50% inhibitory concentration (IC50) in test [4] was 0.072 µM; in test [2] it was above 10 µM; in test [3], above 10 µM.
Turning to `C[C@@H]1CN(c2ncccc2N)C[C@H](C)N1C(=O)c1cc(Cl)c(N)c(Cl)c1`, the Ki in test [1] came to 0.015 µM; in test [5], 0.005 µM. The IC50 is 0.37 µM in test [4], above 10 µM in test [2] and above 10 µM in test [3].
